The test system of the assay is β-catenin-TCF-mediated reporter transcription activity in Colo 205 cells. In words: Colo 205 reporter assay (TCF/LEF luciferase). Type of assay: cell-based. As to conditions: Colo 205 TCF/LEF luciferase reporter, read-out: TCF reporter Colo205 IC50. A digest of the protocol: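 Luciferase signal from a TCF/LEF-driven reporter, stably integrated in Colo 205 colon cancer cells, was measured 5 h after compound addition.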
For orientation: Reporter assays use an easily measured gene product as a stand-in for the process of interest.

The mark [1] stands for this setting: Homo sapiens, COLO 205, 5 h, five hours after addition of compound.
Where [2] appears, read: five hours after addition of compound.
Setting [3] is: Homo sapiens, COLO 205, 5 h, R-isomer at C2 (corresponding to C2 S-isomer), 5 h.

Read-outs that look alike come from different tables or passages of the source.

One may read the IC50 as the concentration that gives 50% inhibition.

As for `Cc1nc(N[C@H]2C[C@@H](NC(=O)Cc3cc(F)c(F)c(F)c3)C2)nc2c1NC(=O)[C@H](C(C)C)N2C` [Compound 514, N-(cis-3-(((S)-7-isopropyl-4,8-dimethyl-6-oxo-5,6,7,8-tetrahydropteridin-2-yl)amino)cyclobutyl)-2-(3,4,5-trifluorophenyl)acetamide], the IC50 under setting [1] was < 300 nM.

Turning to `Cc1nc(N[C@H]2C[C@@H](Cc3nc(C(F)(F)F)no3)C2)nc2c1NC(=O)[C@H](C(C)C)N2C` [Compound 660, (S)-7-isopropyl-4,8-dimethyl-2-(((1s,3R)-3-((3-(trifluoromethyl)-1,2,4-oxadiazol-5-yl)methyl)cyclobutyl)amino)-7,8-dihydropteridin-6(5H)-one], the IC50 under setting [2] is < 300 nM.

With `COc1cc(OC[C@H]2C[C@@H](Nc3nc(C)c4c(n3)N(C)[C@@H](C)C(=O)N4)C2)cc(OC)c1OC` [Compound 280, (7S)-4,7,8-trimethyl-2-((cis-3-((3,4,5-trimethoxyphenoxy)methyl)-cyclobutyl)amino)-7,8-dihydropteridin-6(5H)-one], under setting [1], the IC50 is < 300 nM.

Regarding `COc1cc(O[C@H]2C[C@H](Nc3nc(C)c4c(n3)N(C)[C@@H](C)C(=O)N4)C2)ccc1F` [Compound 370, (7S)-2-((trans-3-(4-fluoro-3-methoxyphenoxy)cyclobutyl)amino)-4,7,8-trimethyl-7,8-dihydropteridin-6(5H)-one], the IC50 under setting [1] is < 300 nM.

On to `Cc1nc(N[C@H]2C[C@H](Sc3ccc(F)cc3)C2)nc2c1NC(=O)[C@H](C)N2C` [Compound 303, (7S)-2-((trans-3-((4-fluorophenyl)thio)cyclobutyl)amino)-4,7,8-trimethyl-7,8-dihydropteridin-6(5H)-one], for which, under setting [1], the IC50 is 300 to 1000 nM.

Consider `Cc1nc(N[C@H]2C[C@H](Oc3ccc(OC(F)(F)F)cc3)C2)nc2c1N(C)C(=O)[C@H](C)N2C` [Compound 325, (7S)-4,5,7,8-tetramethyl-2-((trans-3-(4-(trifluoromethoxy)phenoxy)-cyclobutyl)amino)-7,8-dihydropteridin-6(5H)-one], for which the IC50 under setting [1] lay within 300 to 1000 nM.

`C[C@@H]1C(=O)N(C)c2cnc(NCc3cnn(Cc4ccc(F)cc4)c3)nc2N1C` [Compound I-809]: the IC50 under setting [3] lay within 300 to 1000 nM.

In the case of `Cc1nc(N[C@H]2C[C@H](COc3cc(C(F)(F)F)ccn3)C2)nc2c1NC(=O)[C@H](C)N2C` [Compound 369, (7S)-4,7,8-trimethyl-2-((trans-3-(((4-(trifluoromethyl)pyridin-2-yl)oxy)methyl)cyclobutyl)amino)-7,8-dihydropteridin-6(5H)-one], the IC50 under setting [1] was ≥ 5000 nM.

In the case of `COc1c(F)cc(OC[C@H]2C[C@@H](Nc3nc(C)c4c(n3)N(C)[C@@H](C)C(=O)N4)C2)cc1F` [Compound 284, (7S)-2-((cis-3-((3,5-difluoro-4-methoxyphenoxy)methyl)cyclobutyl)amino)-4,7,8-trimethyl-7,8-dihydropteridin-6(5H)-one], under setting [1], the IC50 is < 300 nM.

For the molecule `Cc1nc(NCc2cnn(Cc3cccc(F)c3)c2)nc2c1NC(=O)[C@H](C)N2C` [Compound 69, (7S)-2-(((1-(3-fluorobenzyl)-1H-pyrazol-4-yl)methyl)amino)-4,7,8-trimethyl-7,8-dihydropteridin-6(5H)-one], under setting [1], the IC50 was < 300 nM.

Take `Cc1nc(NCc2cnn(CC3CC(F)(F)C3)c2)nc2c1NC(=O)[C@H](C)N2C` [Compound 61, (7S)-2-(((1-((3,3-difluorocyclobutyl)methyl)-1H-pyrazol-4-yl)methyl)amino)-4,7,8-trimethyl-7,8-dihydropteridin-6(5H)-one]: the IC50 under setting [1] is < 300 nM.

As for `Cc1nc(NCc2cnn(Cc3ccc(Cl)nc3)c2)nc2c1NC(=O)[C@H](C1CCC1)N2C` [Compound 566, (7S)-2-(((1-((6-chloropyridin-3-yl)methyl)-1H-pyrazol-4-yl)methyl)amino)-7-cyclobutyl-4,8-dimethyl-7,8-dihydropteridin-6(5H)-one], under setting [1], the IC50 was < 300 nM.

Take `Cc1nc(NCc2cc(C)n(Cc3ccc(F)cc3)c2C)nc2c1NC(=O)[C@H](C(C)C)N2C` [Compound 508, (S)-2-(((1-(4-fluorobenzyl)-2,5-dimethyl-1H-pyrrol-3-yl)methyl)amino)-7-isopropyl-4,8-dimethyl-7,8-dihydropteridin-6(5H)-one]: the IC50 under setting [1] was in the range of 300 to 1000 nM.

As for `Cc1nc(N[C@H]2C[C@@H](Cn3cncc3C(F)(F)F)C2)nc2c1NC(=O)[C@H](C(C)C)N2C` [Compound 679, (S)-7-isopropyl-4,8-dimethyl-2-((cis-3-((5-(trifluoromethyl)-1H-imidazol-1-yl)methyl)cyclobutyl)amino)-7,8-dihydropteridin-6(5H)-one], the IC50 under setting [1] was 300 to 1000 nM.

As to `Cc1nc(N[C@H]2C[C@@H](Nc3ccc(F)cn3)C2)nc2c1NC(=O)[C@H](C(C)C)N2C` [Compound 732, (S)-2-((cis-3-((5-fluoropyridin-2-yl)amino)cyclobutyl)amino)-7-isopropyl-4,8-dimethyl-7,8-dihydropteridin-6(5H)-one], the IC50 under setting [1] is 1000 to 5000 nM.

On to `Cc1nc(NCc2cnn(C[C@@H](O)c3ccc(F)cc3)c2)nc2c1NC(=O)[C@H](C)N2C` [Compound 131, (7S)-2-[[1-[(2S)-2-(4-fluorophenyl)-2-hydroxy-ethyl]pyrazol-4-yl]methylamino]-4,7,8-trimethyl-5,7-dihydropteridin-6-one], for which the IC50 under setting [1] lay in the range of 1000 to 5000 nM.

For `Cc1nc(NC2CN(C(=O)Cc3ccc(F)cc3F)C2)nc2c1NC(=O)[C@H](C(C)C)N2C` [Compound 616, (S)-2-((1-(2-(2,4-difluorophenyl)acetyl)azetidin-3-yl)amino)-7-isopropyl-4,8-dimethyl-7,8-dihydropteridin-6(5H)-one], the IC50 under setting [1] fell in the range of 300 to 1000 nM.

Consider `Cc1nc(N[C@@H]2CCN(C(=O)c3cc(F)c(F)c(F)c3)C2)nc2c1NC(=O)[C@H](C(C)C)N2C` [Compound I-541], for which the IC50 under setting [1] lay in the range of 300 to 1000 nM.

On to `Cc1nc(N[C@H]2C[C@H](Oc3cc(F)c(F)c(F)c3)C2)nc2c1NC(=O)[C@H]([C@H](C)OC(C)(C)C)N2C` [Compound 745, (S)-7-((S)-1-(tert-butoxy)ethyl)-4,8-dimethyl-2-(((1r,3S)-3-(3,4,5-trifluorophenoxy)cyclobutyl)amino)-7,8-dihydropteridin-6(5H)-one], for which the IC50 under setting [2] was in the range of 300 to 1000 nM.

In the case of `Cc1nc(N[C@H]2C[C@H](NC(=O)N(C)C3CCC(F)(F)CC3)C2)nc2c1NC(=O)[C@H](C(C)C)N2C` [Compound 537, 1-(4,4-difluorocyclohexyl)-3-(trans-3-(((S)-7-isopropyl-4,8-dimethyl-6-oxo-5,6,7,8-tetrahydropteridin-2-yl)amino)cyclobutyl)-1-methylurea], under setting [1], the IC50 was 1000 to 5000 nM.

For the molecule `CC[C@@H]1C(=O)N(C)c2cnc(NCc3cnn(Cc4cc(F)c(F)c(F)c4)c3)nc2N1C(C)C` [Compound I-1465], the IC50 under setting [3] is < 300 nM.

On to `Cc1nc(NC2CN(C(=O)c3cccc(C(F)(F)F)c3)C2)nc2c1NC(=O)[C@H](C(C)C)N2C` [Compound 635, (S)-7-isopropyl-4,8-dimethyl-2-((1-(3-(trifluoromethyl)benzoyl)azetidin-3-yl)amino)-7,8-dihydropteridin-6(5H)-one], for which the half-inhibitory concentration (IC50) under setting [1] is < 300 nM.

As for `Cc1nc(N[C@H]2C[C@H](Oc3ccc(OC(F)F)nc3)C2)nc2c1NC(=O)[C@H](C)N2C` [Compound 361, (7S)-2-((trans-3-((6-(difluoromethoxy)pyridin-3-yl)oxy)cyclobutyl)amino)-4,7,8-trimethyl-7,8-dihydropteridin-6(5H)-one], under setting [1], the IC50 was < 300 nM.

For the molecule `CC[C@@H]1C(=O)N(CC)c2cnc(NCc3cnn(Cc4ccc(F)cc4)c3)nc2N1C` [Compound I-987], the IC50 under setting [3] was < 300 nM.

For the molecule `Cc1nc(NCc2cnn(Cc3ccc(C4CC4)nc3)c2)nc2c1NC(=O)[C@H](C(C)C)N2C` [Compound 442, (7S)-2-(((1-((6-cyclopropylpyridin-3-yl)methyl)-1H-pyrazol-4-yl)methyl)amino)-7-isopropyl-4,8-dimethyl-7,8-dihydropteridin-6(5H)-one], the IC50 under setting [1] was < 300 nM.

For `CCN1C(=O)[C@H](C)N(CC)c2nc(NCc3cnn(Cc4cc(F)c(F)c(F)c4)c3)ncc21` [Compound 31, (7S)-5,8-diethyl-7-methyl-2-(((1-(3,4,5-trifluorobenzyl)-1H-pyrazol-4-yl)methyl)amino)-7,8-dihydropteridin-6(5H)-one], the IC50 under setting [1] was < 300 nM.

In the case of `Cc1nc(N[C@H]2C[C@@H](NC(=O)Nc3ccc(F)cc3)C2)nc2c1NC(=O)[C@H](C)N2C` [Compound 458, 1-(4-fluorophenyl)-3-(cis-3-(((S)-4,7,8-trimethyl-6-oxo-5,6,7,8-tetrahydropteridin-2-yl)amino)cyclobutyl)urea], the IC50 under setting [1] lay in the range of 300 to 1000 nM.

Consider `Cc1nc(NC2CN(Cc3ccc(C(F)(F)F)nc3)C2)nc2c1NC(=O)[C@H](C(C)C)N2C` [Compound 649, (S)-7-isopropyl-4,8-dimethyl-2-((1-((6-(trifluoromethyl)pyridin-3-yl)methyl)azetidin-3-yl)amino)-7,8-dihydropteridin-6(5H)-one], for which the IC50 under setting [1] is < 300 nM.

Consider `Cc1nc(NCc2cnn(Cc3ccnc(N(C)C)c3)c2)nc2c1NC(=O)[C@H](C(C)C)N2C` [Compound 448, (S)-2-(((1-((2-(dimethylamino)pyridin-4-yl)methyl)-1H-pyrazol-4-yl)methyl)amino)-7-isopropyl-4,8-dimethyl-7,8-dihydropteridin-6(5H)-one], for which, under setting [1], the IC50 was < 300 nM.

In the case of `Cc1nc(NCc2cnn(C[C@H](C)c3ccccc3)c2)nc2c1NC(=O)[C@H](C)N2C` [Compound 90, (7S)-4,7,8-trimethyl-2-(((1-((R)-2-phenylpropyl)-1H-pyrazol-4-yl)methyl)amino)-7,8-dihydropteridin-6(5H)-one], the IC50 under setting [1] was < 300 nM.

As to `CCN1C(=O)[C@@H](C)N(CC)c2nc(NCc3cnn(Cc4ccc(F)cc4)c3)ncc21` [Compound I-985], the IC50 under setting [3] is < 300 nM.

For the origin of these results see patent US20230312587A1, “PTERIDINONE COMPOUNDS AND USES THEREOF” (Vertex Pharmaceutical Incorporated, priority 2018, published 2023).
